Experimental data published in article PMC12720774, “Detergents alter the stability and lipid binding properties of the CD1d immunoreceptor” (Protein Science : A Publication of the Protein Society, 2025).
Several values for one entry are separate records, joined by “and”; a condition that tells them apart may be missing. Equal values may be shown once. Where a name gives a salt, the structure may show the parent alone. Read-outs that look alike come from different tables or passages of the source.

Legend:
[1] = approximate, cited from earlier work
[2] = biological target: hCD1d (Homo sapiens, UniProt P15813+P61769); assay: Nano differential scanning fluorimetry (nanoDSF) thermal stability; assay type: binding; set-up: TEV protease cleavage site ENLYFQS (C); BirA biotinylation site (C); His7 (C); made in house; host or cells: TurboCHO cells (GenScript); details: for ΔTm aveage: Figure 5C, nanoDSF, hCD1d with detergent; for ΔT m (NanoDSF): T m difference between hCD1d in the absence and presence of 1000 μM detergent, 1 μM hCD1d; for ΔT m, detergent class summary: approximate; for detergent concentration at which hCD1d appeared to unfold: disappearance of inflection point in ∂(F350/F330)/∂T
Text: We next sought to probe the ability of each detergent to influence the thermal stability of hCD1d. NanoDSF has been previously applied to measure lipid/detergent‐induced thermal stability changes in target proteins (Cecchetti et al., [2021]; Kotov et al., [2019]), but has not yet been applied to ligand binding to CD1. NanoDSF measures the ITF ratio (F 350 nm/F 330 nm) of proteins as a function of temperature to extract thermodynamic parameters. Given that ligand binding typically shifts the melting temperature of proteins, the effect of a ligand on protein stability can be approximated with the ΔT m value (the difference in T m with and without excess ligand) (Cecchetti et al., [2021]; Kotov et al., [2019]). We found all detergents tested to destabilize hCD1d, albeit to different degrees, with ΔT m values ranging from −0.8 to −14.2°C (Figures 4, S4, and Table 1).
Nano differential scanning fluorometry (nanoDSF) was performed using a Prometheus NT.48 (NanoTemper Technologies). Purified hCD1d at 1 μM in 1X PBS pH 7.4 was loaded into nanoDSF grade standard capillaries (NanoTemper Technologies) and exposed to temperatures ranging from 20 to 95°C with a thermal ramping rate of 1°C/min. Excitation power was set to 50%. The ratio of intrinsic fluorescence emission (F 350 nm/F 330 nm) was monitored. Melting temperatures (T m) were obtained from fitting the first derivative plots in the Prometheus NT.48 Software. The experiments were performed in triplicate, and data are presented as the mean ± standard deviation (n = 3).
For experiments with most detergents, prior to data acquisition, hCD1d and detergent or lipid samples were incubated at 37°C overnight (~12 h) to simulate in vitro and in vivo loading conditions. […] For 18:1 LPC experiments: nanoDSF spectra were acquired in the absence and presence of 18:1 LPC in 1X PBS pH 7.4 at 25°C.

[3] = biological target: T1, AF647‐labeled hCD1d (Homo sapiens, UniProt P15813); assay: Microscale thermophoresis (MST) binding assay
T1 construct: TEV protease cleavage site ENLYFQS (C); BirA biotinylation site (C); His7 (C); made in house; host or cells: TurboCHO cells (GenScript)
How it was run: (§1)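 hCD1d was NHS-labeled with AF647 (~75% labeling) and held at 100 nM against rising detergent or 18:1 LPC in PBS pH 7.4. Samples were preincubated at 37°C overnight (~12 h) and read at 25°C with 20 s IR-on time. Data are mean ± SD, n = 3.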

[4] = biological target: T2, AF647‐labeled hCD1d (Homo sapiens, UniProt P15813+P61769); assay: Microscale thermophoresis (MST) binding assay
T2 construct: TEV protease cleavage site ENLYFQS (C); BirA biotinylation site (C); His7 (C); made in house; host or cells: TurboCHO cells (GenScript)
How it was run: as §1

[5] = weight/volume, ref Anatrace catalogue
[6] = K D (MST), detergent with 100 nM AF647‐labeled hCD1d, 25°C, apparent
[7] = MST - Kd (uM) average, Figure 5B, detergent binding to hCD1d
[8] = 0.001 M detergent, 100 nM AF647‐hCD1d
[9] = Figure 5B, detergent binding to hCD1d, read-out: MST - Kd (uM) average
[10] = detergent with 100 nM AF647‐labeled hCD1d, 25°C, apparent, read-out: K D (MST)

Chain of hCD1d (P61769+P15813 fused): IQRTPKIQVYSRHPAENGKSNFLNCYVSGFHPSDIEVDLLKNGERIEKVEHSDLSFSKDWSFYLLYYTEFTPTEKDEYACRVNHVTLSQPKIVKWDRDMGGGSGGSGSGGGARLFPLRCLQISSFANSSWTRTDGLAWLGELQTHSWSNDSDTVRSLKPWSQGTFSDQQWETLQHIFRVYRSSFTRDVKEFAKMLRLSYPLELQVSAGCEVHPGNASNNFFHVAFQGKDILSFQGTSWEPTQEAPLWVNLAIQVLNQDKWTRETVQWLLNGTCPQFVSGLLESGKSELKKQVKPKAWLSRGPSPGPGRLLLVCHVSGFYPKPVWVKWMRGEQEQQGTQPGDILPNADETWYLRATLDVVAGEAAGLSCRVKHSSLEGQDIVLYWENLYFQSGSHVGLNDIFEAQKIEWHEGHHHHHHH
T2 sequence (P61769+P15813 fused): as above
T1 sequence (P15813 whole entry, looked up): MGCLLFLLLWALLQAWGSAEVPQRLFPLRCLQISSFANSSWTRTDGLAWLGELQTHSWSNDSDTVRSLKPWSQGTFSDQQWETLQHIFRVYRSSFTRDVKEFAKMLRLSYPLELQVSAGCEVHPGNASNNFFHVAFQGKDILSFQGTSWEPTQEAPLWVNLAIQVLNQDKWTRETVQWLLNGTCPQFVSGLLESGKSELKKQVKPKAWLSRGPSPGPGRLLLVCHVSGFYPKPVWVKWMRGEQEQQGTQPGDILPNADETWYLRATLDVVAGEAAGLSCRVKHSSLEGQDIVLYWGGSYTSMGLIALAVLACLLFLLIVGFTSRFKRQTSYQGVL

| SMILES | CMC ([1]; ref Anatrace catalogue) | CMC [1, 5] | ΔTm aveage [2] | ΔT m (NanoDSF) [2] | ΔT m, detergent class summary [2] | Kd [3, 6] | Fnorm (rep 1-3) ([4]; 3.05176e-8 M detergent) | Fnorm (rep 1-3) ([4]; 6.10352e-8 M detergent) | Fnorm (rep 1-3) ([4]; 4.88281e-7 M detergent) | Fnorm (rep 1-3) ([4]; 9.76563e-7 M detergent) | Fnorm (rep 1-3) ([4]; 1.95313e-6 M detergent) | Fnorm (rep 1-3) ([4]; 3.90625e-6 M detergent) | Fnorm (rep 1-3) ([4]; 7.8125e-6 M detergent) | Fnorm (rep 1-3) ([4]; 1.5625e-5 M detergent) | Fnorm (rep 1-3) ([4]; 3.125e-5 M detergent) | Fnorm (rep 1-3) ([4]; 6.25e-5 M detergent) | Fnorm (rep 1-3) ([4]; 0.000125 M detergent) | Fnorm (rep 1-3) ([4]; 0.00025 M detergent) | Fnorm (rep 1-3) ([4]; 0.0005 M detergent) | Fnorm (rep 1-3) [4, 8] | further results |
| --- | --- | --- | --- | --- | --- | --- | --- | --- | --- | --- | --- | --- | --- | --- | --- | --- | --- | --- | --- | --- | --- |
| C[C@H](CCC(=O)NCCC[N+](C)(C)CCCS(=O)(=O)[O-])[C@H]1CC[C@H]2[C@@H]3[C@H](O)C[C@@H]4C[C@H](O)CC[C@]4(C)[C@H]3C[C@H](O)[C@]12C [CHAPS, 3‐((3‐cholamidopropyl) dimethylammonio)‐1‐propanesulfonate] | 8000 µM | 0.49% | -1.3 °C | −1.3 ± 0.4 °C | −1 to −2 °C | < 200 µM | 790.173 ‰ and 791.465 ‰ and 791.791 ‰ | 791.241 ‰ and 791.286 ‰ and 792.264 ‰ | 790.852 ‰ and 792.443 ‰ and 789.72 ‰ | 790.963 ‰ and 791.166 ‰ and 789.816 ‰ | 790.601 ‰ and 790.682 ‰ and 790.374 ‰ | 791.182 ‰ and 790.338 ‰ and 790.7 ‰ | 792.893 ‰ and 791.581 ‰ and 790.149 ‰ | 792.783 ‰ and 794.481 ‰ and 793.14 ‰ | 797.777 ‰ and 796.648 ‰ and 796.885 ‰ | 802.833 ‰ and 802.212 ‰ and 800.436 ‰ | 807.041 ‰ and 807.203 ‰ and 808.474 ‰ | 810.973 ‰ and 810.93 ‰ and 810.716 ‰ | 814.652 ‰ and 812.289 ‰ and 815.372 ‰ | 815.189 ‰ and 817.537 ‰ and 819.368 ‰ | Kd [3, 7]: 90.4 µM; Fnorm (rep 1-3) ([4]; 1.2207e-7 M detergent): 790.851 ‰ and 791.968 ‰ and 791.334 ‰; Fnorm (rep 1-3) ([4]; 2.44141e-7 M detergent): 791.909 ‰ and 789.682 ‰ and 791.374 ‰ |
| CCCCCCCCCCCCCCCC[N+](C)(C)C [CTAB, hexadecyltrimethylammonium bromide] |  |  | -14.17 °C | −14.2 ± 0.8 °C | −12 to −15 °C | 10.9 ± 1.2 µM |  |  | 812.075 ‰ and 810.216 ‰ and 807.19 ‰ | 814.18 ‰ and 810.332 ‰ and 807.136 ‰ | 814.445 ‰ and 813.166 ‰ and 810.178 ‰ | 815.986 ‰ and 818.175 ‰ and 815.532 ‰ | 824.731 ‰ and 823.149 ‰ and 822.329 ‰ | 835 ‰ and 828.362 ‰ and 831.779 ‰ | 849.376 ‰ and 847.531 ‰ and 847.477 ‰ | 858.509 ‰ and 854.12 ‰ and 851.197 ‰ | 844.143 ‰ and 841.907 ‰ and 839.82 ‰ | 844.455 ‰ and 843.492 ‰ and 841.952 ‰ | 845.737 ‰ and 843.294 ‰ and 845.557 ‰ | 845.54 ‰ and 843.477 ‰ and 843.19 ‰ | CMC ([1]; ref Sigma Aldrich catalogue): 920 µM; CMC ([1]; weight/volume, ref Sigma Aldrich catalogue): 0.033%; detergent concentration at which hCD1d appeared to unfold [2]: > 200 µM; Kd [3, 7]: 10.9 µM |
| CCCCCCCCCCCC[N+](C)(C)[O-] [LDAO, lauryldimethylamine‐N‐oxide] | 1000 µM | 0.023% | -13.43 °C | −13.4 ± 0.1 °C | −12 to −15 °C |  | 814.692 ‰ and 814.467 ‰ and 814.489 ‰ | 817.057 ‰ and 815.567 ‰ and 813.955 ‰ | 815.87 ‰ and 817.501 ‰ and 814.61 ‰ | 819.746 ‰ and 816.532 ‰ and 815.008 ‰ | 821.408 ‰ and 818.645 ‰ and 816.968 ‰ | 814.412 ‰ and 819.336 ‰ and 814.062 ‰ | 818.471 ‰ and 817.826 ‰ and 814.305 ‰ | 818.754 ‰ and 820.576 ‰ and 816.619 ‰ | 825.871 ‰ and 823.407 ‰ and 821.261 ‰ | 827.8 ‰ and 827.022 ‰ and 819.019 ‰ | 840.896 ‰ and 830.059 ‰ and 833.855 ‰ | 853.04 ‰ and 842.052 ‰ and 840.306 ‰ | 856.938 ‰ and 859.889 ‰ and 860.509 ‰ | 853.851 ‰ and 856.381 ‰ and 852.289 ‰ | detergent concentration at which hCD1d appeared to unfold [2]: > 200 µM; Kd [3, 9]: 157 µM; Kd [3, 10]: 157 ± 58.6 µM; Fnorm (rep 1-3) ([4]; 1.2207e-7 M detergent): 815.153 ‰ and 815.733 ‰ and 813.219 ‰; Fnorm (rep 1-3) ([4]; 2.44141e-7 M detergent): 820.838 ‰ and 814.573 ‰ and 816.312 ‰ |
| CCCCCCCCO[C@@H]1O[C@H](CO)[C@@H](O)[C@H](O)[C@H]1O [ODG, n‐octyl‐β‐D‐glucopyranoside] | 18,000 μM | 0.53% | -0.83 °C | −0.8 ± 0.4 °C | −1 to −2 °C |  |  |  |  | 842.328 ‰ and 845.864 ‰ and 848.262 ‰ | 843.26 ‰ and 846.856 ‰ and 850.006 ‰ | 843.026 ‰ and 843.822 ‰ and 848.605 ‰ | 843.431 ‰ and 845.217 ‰ and 850.155 ‰ | 843.398 ‰ and 846.496 ‰ and 848.167 ‰ | 843.251 ‰ and 846.684 ‰ and 848.174 ‰ | 844.533 ‰ and 847.002 ‰ and 847.612 ‰ | 844.648 ‰ and 847.89 ‰ and 849.866 ‰ | 846.571 ‰ and 844.204 ‰ and 849.145 ‰ | 846.14 ‰ and 848.026 ‰ and 848.57 ‰ | 845.727 ‰ and 847.773 ‰ and 849.553 ‰ | ΔT m (nanoDSF), lipid/hCD1d ([2]; absence vs maximum concentration of detergent, 1 μM endo/hCD1d (Figure S10)): −0.2 to −0.8 °C; Kd [3, 9]: 6580 µM; Kd [3, 10]: 6580 ± 186 µM; Fnorm (rep 1-3) ([4]; 0.002 M detergent): 847.311 ‰ and 851.671 ‰ and 850.904 ‰; Fnorm (rep 1-3) ([4]; 0.004 M detergent): 852.082 ‰ and 853.968 ‰ and 856.97 ‰; Fnorm (rep 1-3) ([4]; 0.008 M detergent): 864.475 ‰ and 866.313 ‰ and 870.655 ‰; Fnorm (rep 1-3) ([4]; 0.032 M detergent): 877.078 ‰ and 878.262 ‰ and 882.232 ‰ |
| CCCCCCCCCCCCOS(=O)(=O)O [SDS, sodium dodecyl sulfate] | 1990 µM | 0.057% | -13.07 °C | −13.1 ± 0.7 °C | −12 to −15 °C | > 10000 µM | 794.561 ‰ and 796.538 ‰ and 787.226 ‰ | 793.573 ‰ and 796.65 ‰ and 788.808 ‰ | 790.042 ‰ and 793.566 ‰ and 789.803 ‰ | 792.907 ‰ and 794.378 ‰ and 788.273 ‰ | 792.77 ‰ and 792.711 ‰ and 788.545 ‰ | 794.169 ‰ and 793.199 ‰ and 789.062 ‰ | 793.805 ‰ and 798.209 ‰ and 788.93 ‰ | 795.098 ‰ and 796.977 ‰ and 790.788 ‰ | 796.19 ‰ and 799.152 ‰ and 792.387 ‰ | 800.38 ‰ and 802.553 ‰ and 795.217 ‰ | 801.158 ‰ and 800.337 ‰ and 800.706 ‰ | 801.719 ‰ and 804.302 ‰ and 803.561 ‰ | 816.347 ‰ and 820.909 ‰ and 814.082 ‰ | 825.168 ‰ and 825.899 ‰ and 822.956 ‰ | detergent concentration at which hCD1d appeared to unfold [2]: > 200 µM; Kd ([3]; K D, detergent class summary, approximate, collectively from ITF and MST): 10 to 500 µM; binding to hCD1d by MST (in words) [4]: observable binding; Fnorm (rep 1-3) ([4]; 1.2207e-7 M detergent): 795.629 ‰ and 795.536 ‰ and 789.052 ‰; Fnorm (rep 1-3) ([4]; 2.44141e-7 M detergent): 792.166 ‰ and 793.398 ‰ and 784.145 ‰ |
